Read-outs that look alike come from different tables or passages of the source.
How the values were obtained:
[1] = Multiple rising dose Phase 1 PK, healthy subjects, day 14 (young males unless stated); assay type: in vivo, human; settings: for Cmax / half-life / AUC(0-t): plasma; for Cmax / half-life / CL renal / AUC(0-t): oral; for CL renal: urine, read-out: renal clearance CLR at steady state
Description: The steady state AUC geometric mean accumulation ratios were ˜2 in young male subjects and ˜2.8 in elderly subjects (male and female).
Although exposures were similar in middle-aged males when compared to young males, plasma concentrations were higher in elderly compared to middle-aged and young subjects. […] Furthermore, the steady state AUC geometric mean accumulation ratios were ˜2 in young males and ˜2.8 in the elderly.

[2] = Phase 2b OAB study, trough concentrations; assay type: in vivo, human; settings: OAB patients
β1-AR = biological target: T1, β1-AR (Homo sapiens, UniProt P08588); test: Competition binding assay, recombinant β1-AR
T1 construct: expressed in transfected cells; membranes prepared from them

β3-AR = β3-AR (Homo sapiens, UniProt P13945); test: biochemical
β3-AR, sequence (P13945 whole entry): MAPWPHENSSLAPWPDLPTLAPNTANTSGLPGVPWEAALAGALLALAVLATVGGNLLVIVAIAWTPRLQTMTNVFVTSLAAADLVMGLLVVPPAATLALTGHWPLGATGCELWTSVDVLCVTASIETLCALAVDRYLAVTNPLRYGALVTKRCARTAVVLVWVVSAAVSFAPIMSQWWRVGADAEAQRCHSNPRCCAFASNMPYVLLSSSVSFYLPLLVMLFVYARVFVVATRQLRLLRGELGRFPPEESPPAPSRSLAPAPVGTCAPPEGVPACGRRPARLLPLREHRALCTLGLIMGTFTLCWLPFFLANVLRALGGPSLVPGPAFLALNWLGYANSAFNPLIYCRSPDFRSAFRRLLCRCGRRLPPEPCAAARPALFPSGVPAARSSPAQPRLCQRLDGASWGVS

T1 sequence (P08588 whole entry): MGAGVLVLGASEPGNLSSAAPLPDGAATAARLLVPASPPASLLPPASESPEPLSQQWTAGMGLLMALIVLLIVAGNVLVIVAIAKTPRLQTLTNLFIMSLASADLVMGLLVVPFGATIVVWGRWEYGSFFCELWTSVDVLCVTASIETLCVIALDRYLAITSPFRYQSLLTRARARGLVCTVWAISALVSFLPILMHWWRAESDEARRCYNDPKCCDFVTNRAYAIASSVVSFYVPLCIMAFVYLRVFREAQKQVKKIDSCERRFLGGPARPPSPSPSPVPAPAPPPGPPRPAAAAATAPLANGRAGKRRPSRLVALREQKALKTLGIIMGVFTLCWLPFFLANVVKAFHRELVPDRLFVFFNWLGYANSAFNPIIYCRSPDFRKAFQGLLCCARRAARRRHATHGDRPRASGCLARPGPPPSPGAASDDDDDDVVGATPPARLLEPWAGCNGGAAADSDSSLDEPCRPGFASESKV

Work on O=C(Nc1ccc(C[C@@H]2CC[C@H]([C@H](O)c3ccccc3)N2)cc1)[C@@H]1CCc2nccc(=O)n21 [Vibegron, (6S)-N-[4-[[(2S,5R)-5-[(R)-hydroxy(phenyl)methyl]pyrrolidin-2-yl]methyl]phenyl]-4-oxo-7,8-dihydro-6H-pyrrolo[1,2-a]pyrimidine-6-carboxamide] yielded a Cmax ([1]; both sexes, human, 100 mg, 100 mg QD, elderly male and female, read-out: Cmax) of 224 ± 92 ng/mL, a half-life ([1]; both sexes, human, 100 mg, 100 mg QD, elderly male and female, read-out: t1/2 (converted)) of 88.4 ± 10.7 h and a CL renal ([1]; both sexes, human, 100 mg, elderly male and female) of 127 mL/min. For the same compound, the “Cmax higher than healthy young males” value ([1]; elderly and females) was 50-70%, the AUC(0-t) ([1]; female, human, 100 mg, elderly females, read-out: steady state AUC0-24hr) was 2620 ng·h/mL and the Cmax ([1]; female, human, 100 mg, elderly females, read-out: steady state Cmax) was 278 ng/mL. For the same compound, the AUC(0-t) ([1]; female, human, 150 mg, 150 mg QD, middle-aged female, fasted, read-out: AUC0-24) was 3180 ± 925 ng·h/mL, the Cmax ([1]; female, human, 150 mg, 150 mg QD, middle-aged female, fasted, read-out: Cmax) was 246 ± 139 ng/mL and the half-life ([1]; female, human, 150 mg, 150 mg QD, middle-aged female, read-out: t1/2 (converted)) was 83.1 ± 17.2 h. The “Cmax higher, elderly Japanese vs non-Japanese” value ([1]; human, in vivo) was 82%, the “steady state AUC, middle-aged females vs middle-aged males” value ([1]; human, in vivo) was about 1.5 fold and the “steady state exposure higher, Japanese vs non-Japanese young males” value ([1]; human, in vivo) was about 30%. For the same compound, the half-life ([1]; human, young and elderly subjects, read-out: terminal t1/2) was 59 to 94 h, the AUC(0-t) ([1]; male, human, 25 mg, 25 mg QD, read-out: AUC0-24) was 164 ng·h/mL and the Cmax ([1]; male, human, 25 mg, 25 mg QD, read-out: Cmax) was 15.6 ± 6.93 ng/mL. The half-life ([1]; male, human, 25 mg, 25 mg QD, read-out: t1/2 (converted)) was 94 ± 9.6 h, the AUC(0-t) ([1]; male, human, 50 mg, 50 mg QD, Japanese, read-out: AUC0-24) was 613 ± 296 ng·h/mL and the Cmax ([1]; male, human, 50 mg, 50 mg QD, Japanese, read-out: Cmax) was 56.9 ± 34.2 ng/mL. The half-life ([1]; male, human, 50 mg, 50 mg QD, Japanese, read-out: t1/2 (converted)) was 69.4 ± 6.6 h, the AUC(0-t) ([1]; male, human, 50 mg, 50 mg QD, read-out: AUC0-24) was 507 ± 176 ng·h/mL and the Cmax ([1]; male, human, 50 mg, 50 mg QD, read-out: Cmax) was 41.5 ± 12.3 ng/mL. For the same compound, the half-life ([1]; male, human, 50 mg, 50 mg QD, read-out: t1/2 (converted)) was 77.2 ± 8.9 h, the AUC(0-t) ([1]; male, human, 100 mg, 100 mg QD, Japanese, read-out: AUC0-24) was 1710 ± 542 ng·h/mL and the Cmax ([1]; male, human, 100 mg, 100 mg QD, Japanese, read-out: Cmax) was 180 ± 111 ng/mL. The half-life ([1]; male, human, 100 mg, 100 mg QD, Japanese, read-out: t1/2 (converted)) was 56.8 ± 19.2 h, the AUC(0-t) ([1]; male, human, 100 mg, 100 mg QD, read-out: AUC0-24) was 1280 ± 529 ng·h/mL and the Cmax ([1]; male, human, 100 mg, 100 mg QD, read-out: Cmax) was 169 ± 80.9 ng/mL. It also gave a half-life ([1]; male, human, 100 mg, 100 mg QD, read-out: t1/2 (converted)) of 79.7 ± 11.5 h, a half-life ([1]; male, human, 150 mg, 150 mg QD, middle-aged male, after 28 days, read-out: t1/2 (converted)) of 72.7 h and an AUC(0-t) ([1]; male, human, 150 mg, 150 mg QD, middle-aged male, read-out: AUC0-24) of 2170 ± 452 ng·h/mL. It also gave a Cmax ([1]; male, human, 150 mg, 150 mg QD, middle-aged male, read-out: Cmax) of 293 ± 67.1 ng/mL, an AUC(0-t) ([1]; male, human, 150 mg, 150 mg QD, read-out: AUC0-24) of 2280 ± 1140 ng·h/mL and a Cmax ([1]; male, human, 150 mg, 150 mg QD, read-out: Cmax) of 305 ± 215 ng/mL. It also gave a half-life ([1]; male, human, 150 mg, 150 mg QD, read-out: t1/2 (converted)) of 79.2 ± 9.2 h, an AUC(0-t) ([1]; male, human, 200 mg, 200 mg QD, Japanese, read-out: AUC0-24) of 4370 ± 618 ng·h/mL and a Cmax ([1]; male, human, 200 mg, 200 mg QD, Japanese, read-out: Cmax) of 631 ± 154 ng/mL. For the same compound, the half-life ([1]; male, human, 200 mg, 200 mg QD, Japanese, read-out: t1/2 (converted)) was 59.5 ± 1.9 h, the AUC(0-t) ([1]; male, human, 200 mg, 200 mg QD, read-out: AUC0-24) was 3200 ± 1120 ng·h/mL and the Cmax ([1]; male, human, 200 mg, 200 mg QD, read-out: Cmax) was 313 ± 168 ng/mL. The half-life ([1]; male, human, 200 mg, 200 mg QD, read-out: t1/2 (converted)) was 64.7 ± 6.5 h, the AUC(0-t) ([1]; male, human, 300 mg, 300 mg QD, read-out: AUC0-24) was 6980 ± 1040 ng·h/mL and the Cmax ([1]; male, human, 300 mg, 300 mg QD, read-out: Cmax) was 733 ± 164 ng/mL. The half-life ([1]; male, human, 300 mg, 300 mg QD, read-out: t1/2 (converted)) was 61.7 ± 7.3 h, the AUC(0-t) ([1]; male, human, 400 mg, 400 mg QD, read-out: AUC0-24) was 10500 ± 2140 ng·h/mL and the Cmax ([1]; male, human, 400 mg, 400 mg QD, read-out: Cmax) was 1400 ± 257 ng/mL. For the same compound, the half-life ([1]; male, human, 400 mg, 400 mg QD, read-out: t1/2 (converted)) was 58.9 ± 5.9 h, the CL renal ([1]; male, human, young males, all dose levels) was 150 to 187 mL/min and the “time to steady state” value ([1]; once daily dosing) was at most 7 days. For the same compound, the “AUC higher in females than males” value ([1]; regardless of age) was 50%, the “mean (±SD) Ctrough” value ([2]; 50 mg QD) was 27.4 (±18.3) ng/mL and the “mean (±SD) Ctrough” value ([2]; 100 mg QD) was 73.6 (±65.5) ng/mL. For the same compound, the “binding to β1-AR” value (β1-AR) was “does not bind” and the IC50 (β3-AR) was 193 nM.

Source: US20210196720A1 (UROVANT SCIENCES GMBH, priority 2018, published 2021)
